Test results published in patent US20230303553A1, “CDK6/DYRK2 DUAL-TARGET INHIBITOR, AND PREPARATION METHOD THEREFOR AND USE THEREOF” (JIANGSU TASLY DIYI PHARMACEUTICAL CO., LTD., priority 2021, published 2023).
Read-outs that look alike come from different tables or passages of the source.

Experiments:
DYRK2 kinase = DYRK2 kinase (Homo sapiens (Human), UniProt Q92630); assay: DYRK2 kinase activity, 33P-ATP / Woodtide substrate; format: biochemical
[1] = test system: triple negative breast cancer (MDA-MB-231) cell line; assay: MTT cancer cell proliferation, MDA-MB-231; format: cell-based; conditions: Homo sapiens
[2] = Pharmacokinetics in SD rats; format: in vivo; conditions: for half-life: read-out: t ½ (converted)
[3] = test system: xenografts of human prostate cancer Du-145; assay: Human prostate cancer Du-145 xenografts in nude mice; format: in vivo, BALB/c nude mice; conditions: for inhibition on tumor growth, in words: FIG. 3
[4] = test system: non-small cell lung cancer (NCI-H1299) cell line; assay: MTT cancer cell proliferation, NCI-H1299; format: cell-based; conditions: Homo sapiens, read-out: IC50 proliferation NCI-H1299
[5] = test system: pancreatic cancer (Panc-1) cell line; assay: MTT cancer cell proliferation, Panc-1; format: cell-based; conditions: Homo sapiens, read-out: IC50 proliferation Panc-1
[6] = test system: human breast cancer (MCF-7); assay: MTT cancer cell proliferation, MCF-7; format: cell-based; conditions: read-out: IC50 proliferation MCF-7
[7] = test system: multiple myeloma (RPMI8226) cell line; assay: MTT cancer cell proliferation, RPMI8226; format: cell-based; conditions: Homo sapiens, read-out: IC50 proliferation RPMI8226
[8] = test system: xenografts of human lung cancer A549; assay: Human lung cancer A549 xenografts in nude mice; format: in vivo, BALB/c nude mice; conditions: for relative tumor proliferation rate T/C(%) / tumor growth inhibition rate: A549 xenograft, 21 days
[9] = test system: colon cancer (HT-29) cell line; assay: MTT cancer cell proliferation, HT-29; format: cell-based; conditions: Homo sapiens, read-out: IC50 proliferation HT-29
[10] = test system: human glioma (U251) cell line; assay: MTT cancer cell proliferation, U251; format: cell-based; conditions: read-out: IC50 proliferation U251
[11] = test system: ovarian cancer (SK-OV-3) cell line; assay: MTT cancer cell proliferation, SK-OV-3; format: cell-based; conditions: Homo sapiens, read-out: IC50 proliferation SK-OV-3
CDK6 kinase = CDK6 kinase (Homo sapiens (Human), UniProt Q00534); assay: CDK6 kinase activity, Lance Ultra TR-FRET; format: biochemical
Chain of CDK6 kinase (Q00534 whole entry): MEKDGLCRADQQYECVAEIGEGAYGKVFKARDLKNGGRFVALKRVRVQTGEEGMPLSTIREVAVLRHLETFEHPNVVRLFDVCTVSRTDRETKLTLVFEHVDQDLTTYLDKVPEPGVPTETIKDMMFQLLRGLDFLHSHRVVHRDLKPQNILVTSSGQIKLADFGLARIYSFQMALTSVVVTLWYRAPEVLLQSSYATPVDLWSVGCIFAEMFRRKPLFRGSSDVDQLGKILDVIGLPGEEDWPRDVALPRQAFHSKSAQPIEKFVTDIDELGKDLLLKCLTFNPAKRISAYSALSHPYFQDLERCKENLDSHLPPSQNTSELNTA
Chain of CDK6 kinase (P24385 whole entry partner): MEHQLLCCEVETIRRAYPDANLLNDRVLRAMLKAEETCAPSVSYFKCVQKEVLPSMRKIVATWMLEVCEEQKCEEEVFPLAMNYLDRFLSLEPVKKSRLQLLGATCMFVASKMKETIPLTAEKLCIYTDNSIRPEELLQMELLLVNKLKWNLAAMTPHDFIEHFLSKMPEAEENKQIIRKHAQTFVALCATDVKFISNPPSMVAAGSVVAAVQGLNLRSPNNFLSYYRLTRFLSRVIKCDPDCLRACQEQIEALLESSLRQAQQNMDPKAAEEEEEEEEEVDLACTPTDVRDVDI

ICR mice = assay: Acute toxicity in mice, single gavage; format: in vivo
[12] = test system: leukemia (K562) cell line; assay: MTT cancer cell proliferation, K562; format: cell-based; conditions: Homo sapiens, read-out: IC50 proliferation K-562
[13] = test system: liver cancer (HepG2) cell line; assay: MTT cancer cell proliferation, HepG2; format: cell-based; conditions: Homo sapiens, read-out: IC50 proliferation HepG2
[14] = test system: xenografts of human prostate cancer PC3; assay: Human prostate cancer PC-3 xenografts in nude mice; format: in vivo, BALB/c nude mice; conditions: for relative tumor proliferation rate T/C(%) / tumor growth inhibition rate: PC-3 xenograft, 28 days
[15] = test system: prostate cancer (PC-3) cell line; assay: MTT cancer cell proliferation, PC-3; format: cell-based; conditions: Homo sapiens, read-out: IC50 proliferation PC-3
[16] = test system: gastric cancer (MGC-803) cell line; assay: MTT cancer cell proliferation, MGC-803; format: cell-based; conditions: Homo sapiens, read-out: IC50 proliferation MGC-803
[17] = test system: prostate cancer (Du-145) cell line; assay: MTT cancer cell proliferation, Du-145; format: cell-based; conditions: Homo sapiens, read-out: IC50 proliferation Du-145
lung cancer (A-549) = assay: MTT cancer cell proliferation, A-549; format: cell-based; conditions: Homo sapiens, read-out: IC50 proliferation A-549
[18] = rat, plasma, iv tail vein 1 mg/kg
[19] = rat, plasma, po gavage 10 mg/kg
[20] = Du-145 xenograft, 200 mg/kg intragastric once every day
[21] = 150 mg/kg intragastric once every 2 days
[22] = 300 mg/kg intragastric once every 2 days
[23] = 100 mg/kg intragastric once every day
[24] = 200 mg/kg intragastric once every day

Chain of DYRK2 kinase (Q92630 whole entry): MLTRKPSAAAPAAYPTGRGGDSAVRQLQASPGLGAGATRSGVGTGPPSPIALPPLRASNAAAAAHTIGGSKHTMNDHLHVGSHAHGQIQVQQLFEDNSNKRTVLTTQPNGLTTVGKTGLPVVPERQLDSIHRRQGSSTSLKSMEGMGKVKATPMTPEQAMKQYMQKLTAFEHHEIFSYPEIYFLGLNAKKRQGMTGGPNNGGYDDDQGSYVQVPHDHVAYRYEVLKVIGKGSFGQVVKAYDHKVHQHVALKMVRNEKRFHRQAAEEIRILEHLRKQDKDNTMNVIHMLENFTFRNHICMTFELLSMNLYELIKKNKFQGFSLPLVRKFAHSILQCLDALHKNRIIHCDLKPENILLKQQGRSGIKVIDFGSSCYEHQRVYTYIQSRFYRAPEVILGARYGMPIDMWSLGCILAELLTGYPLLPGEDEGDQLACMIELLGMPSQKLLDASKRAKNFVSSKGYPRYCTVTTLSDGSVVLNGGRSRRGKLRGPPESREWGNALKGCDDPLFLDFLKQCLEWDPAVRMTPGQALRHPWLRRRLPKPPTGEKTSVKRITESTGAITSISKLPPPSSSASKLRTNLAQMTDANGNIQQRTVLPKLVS

CCN1CCN(C(=O)c2ccc(Nc3ncc(F)c(-c4ccc5nc(N(C)C)sc5c4)n3)nc2)CC1 [Example 31, (6-((4-(2-(dimethylamino)benzothiazole-6-yl)-5-fluoropyrimidine-2-yl)amino)pyridine-3-yl)(4-ethylpiperazine-1-yl)ketone]
IC50 (DYRK2 kinase): 9 nM
IC50 ([1]; MDA-MB-231, 72 h, read-out: IC50 proliferation MDA-MB-231): 1750 nM
Pharmacokinetic assessment in words [2]: good metabolism in rats, good absorption and exposure and high bioavailability
F (bioavailability) ([2]; po 10 mg/kg vs iv 1 mg/kg): 55.78%
Cl ([2]; po gavage 10 mg/kg): 19.97 mL/min/kg
AUC(0-inf) [2, 18]: 1500 ng·h/mL
Cmax [2, 18]: 974 ng/mL
Tmax [2, 18]: 0.033 h
clearance [2, 18]: 11.1 mL/min/kg
half-life [2, 18]: 2.99 h
AUC(0-inf) [2, 19]: 8380 ng·h/mL
Cmax [2, 19]: 674 ng/mL
Tmax [2, 19]: 4 h
half-life [2, 19]: 5.08 h
effect on growth of xenografts, in words ([3]; Du-145 xenograft in nude mice): significant inhibitory effect
inhibition on tumor growth, in words ([3]; Du-145 xenograft, 100 mg/kg intragastric once every day, groups compared): better inhibition on tumor growth than the positive drug Palbociclib
day on which tumor volume started to be reduced [3, 20]: 31 days
inhibition on tumor growth, in words [3, 20]: significantly inhibited tumor growth
IC50 ([4]; NCI-H1299, 72 h): 2130 nM
IC50 ([5]; PANC-1, 72 h): 1930 nM
IC50 ([6]; MCF7, 72 h): 1890 nM
IC50 ([7]; RPMI-8226, 72 h): 1080 nM
effect on growth of xenografts, in words ([8]; A549 xenograft in nude mice): significant inhibitory effect
relative tumor proliferation rate T/C(%) [8, 21]: 44.8%
tumor growth inhibition rate [8, 21]: 55.2%
relative tumor proliferation rate T/C(%) [8, 22]: 35.9%
tumor growth inhibition rate [8, 22]: 64.1%
IC50 ([9]; HT-29, 72 h): 1870 nM
IC50 ([10]; U-251, 72 h): 2150 nM
IC50 ([11]; SK-OV-3, 72 h): 1780 nM
IC50 (CDK6 kinase): 18 nM
Organ toxicity by HE staining (ICR mice; acute toxicity assay, FIG. 2): no significant toxicity to heart, liver, spleen, lung, kidney and other major organs
Toxicity symptoms / abnormality (ICR mice; single gavage 2500, 5000 or 10000 mg/kg): no abnormality was found within 12 h after administration in all groups
Death of mice (ICR mice; single gavage 2500, 5000 or 10000 mg/kg, 14 days observation): No animals died within 24h of dosing and no animals died after day 14 of dosing
IC50 ([12]; K562, 72 h): 917 nM
IC50 ([13]; HepG2, 72 h): 1540 nM
effect on growth of xenografts, in words ([14]; PC-3 xenograft in nude mice): significant inhibitory effect
relative tumor proliferation rate T/C(%) [14, 23]: 35.7%
tumor growth inhibition rate [14, 23]: 64.3%
relative tumor proliferation rate T/C(%) [14, 24]: 23.4%
tumor growth inhibition rate [14, 24]: 76.6%
IC50 ([15]; PC-3, 72 h): 1060 nM
IC50 ([16]; MGC-803, 72 h): 2020 nM
IC50 ([17]; DU-145, 72 h): 3300 nM
IC50 (lung cancer (A-549); A549, 72 h): 1640 nM

CC(=O)c1c(C)c2cnc(Nc3ccc(N4CCNCC4)cn3)nc2n(C2CCCC2)c1=O [Palbociclib, reference compound]
IC50 ([1]; MDA-MB-231, read-out: IC50 proliferation MDA-MB-231, MTT, 72 hours): 4370 nM
IC50 ([4]; NCI-H1299, MTT, 72 hours): 4200 nM
IC50 ([5]; PANC-1, MTT, 72 hours): 4160 nM
IC50 ([6]; MCF7, MTT, 72 hours): 4490 nM
IC50 ([7]; RPMI-8226, MTT, 72 hours): 2310 nM
relative tumor proliferation rate T/C(%) [8, 21]: 39.6%
tumor growth inhibition rate [8, 21]: 60.4%
IC50 ([9]; HT-29, MTT, 72 hours): 3840 nM
IC50 ([10]; U-251, MTT, 72 hours): 4350 nM
IC50 ([11]; SK-OV-3, MTT, 72 hours): 4010 nM
IC50 ([12]; K562, MTT, 72 hours): 2020 nM
IC50 ([13]; HepG2, MTT, 72 hours): 4140 nM
relative tumor proliferation rate T/C(%) [14, 23]: 35.5%
tumor growth inhibition rate [14, 23]: 64.5%
IC50 ([15]; PC-3, MTT, 72 hours): 4570 nM
IC50 ([16]; MGC-803, MTT, 72 hours): 4440 nM
IC50 ([17]; DU-145, MTT, 72 hours): 4570 nM
IC50 (lung cancer (A-549); A549, MTT, 72 hours): 4230 nM
